Test results from paper PMC13058478 (Frontiers in Pharmacology, 2026).

Test: Caco-2 passive permeability A to B
Format: in vitro ADME
Conditions: Caco-2, A to B
Method: The concentration of each compound in the respective samples was determined by LC-MS.

CC(C)NCC(O)COc1cccc2ccccc12 (stereo not shown) [Propranolol]
Apparent passive permeability A to B Paap, Min: 18.41 10^-6 cm/s
